Earlier results as cited in patent publication US20040002514A1, “Topical use of hydroxyeicosatetraenoic acid compounds to treat psoriasis” (Alcon, Inc., priority 2002, published 2004).

Assays:
[1] = test system: IL-6 synthesis by bone marrow stromal cells
colitis = conditions: in vivo
[2] = test system: IL-8 production by human bone marrow stromal cells; conditions: 1 μM to 0.1 nM
[3] = test system: leukotriene B4 production or its activity

## CCCCC[C@H](O)/C=C/C=C\C/C=C\C/C=C\CCCC(=O)O [15-HETE, 15-Hydroxyeicosatetraenoic acid]
[1]
  effect on spontaneous, serum- and cytokine-induced IL-6 synthesis: no effect
colitis
  anti-inflammatory properties in colitis: minor anti-inflammatory properties
[2]
  effect on spontaneous and serum-induced production of IL-8: no effect
Psoriatic skin lesions; injected into psoriatic skin lesions
  improvement of psoriasis: can improve psoriasis
Psoriatic skin lesions; intralesional injection, 0.1 ml of 10 lmol/L
  amount required to cause a clinical effect: 300 ng
[3]
  effect on leukotriene B4 production or its activity: inhibitory effects
